Experiments:
[1] = target: cAMP-dependent protein kinase catalytic subunit beta (Homo sapiens) (UniProt P22694); assay: PRKACB (PRKAC BET Invitrogen Lab (UK) kinase screen (BI); details: Compound concentration 1.0 uM
[2] = target: Serotonin 2 (5-HT2) receptor (Rattus norvegicus) (UniProt P30994+P08909+P14842)
[3] = target: Tyrosine-protein kinase BTK (Homo sapiens) (UniProt Q06187)
[4] = target: CDK6/cyclin D1 (Homo sapiens) (UniProt P24385+Q00534); details: Compound concentration 1.0 uM
[5] = target: Ribosomal protein S6 kinase alpha-2 (Homo sapiens) (UniProt Q15349); details: Compound concentration 1.0 uM
[6] = target: Myotonin-protein kinase (Homo sapiens) (UniProt Q09013); details: Compound concentration 1.0 uM
[7] = target: Acetylcholinesterase (Homo sapiens) (UniProt P22303); details: Compound concentration 10.0 uM
[8] = target: Mitogen-activated protein kinase 7 (Homo sapiens) (UniProt Q13164); details: Compound concentration 1.0 uM
[9] = target: Natriuretic peptides A (Cavia porcellus) (UniProt P27596); details: Compound concentration 100.0 uM
[10] = target: Death-associated protein kinase 2 (Homo sapiens) (UniProt Q9UIK4); assay: DAPK2 Invitrogen Lab (UK) kinase screen (BI); details: Compound concentration 1.0 uM
[11] = target: Ephrin type-A receptor 1 (Homo sapiens) (UniProt P21709); details: Compound concentration 1.0 uM
[12] = target: Serine/threonine-protein kinase 38-like (Homo sapiens) (UniProt Q9Y2H1); assay: STK38L (NDR2) Invitrogen Lab (UK) kinase screen (BI); details: Compound concentration 1.0 uM
[13] = target: Tyrosine-protein kinase TXK (Homo sapiens) (UniProt P42681); details: Compound concentration 1.0 uM
[14] = target: Casein kinase I isoform gamma-2 (Homo sapiens) (UniProt P78368)
[15] = target: Serine/threonine-protein kinase MRCK alpha (Homo sapiens) (UniProt Q5VT25); details: Compound concentration 1.0 uM
[16] = target: Ribosomal protein S6 kinase alpha-3 (Homo sapiens) (UniProt P51812)
[17] = target: Dual specificity protein kinase CLK4 (Homo sapiens) (UniProt Q9HAZ1); assay: CLK4 Invitrogen Lab (UK) kinase screen (BI); details: Compound concentration 1.0 uM
[18] = target: MAP kinase-activated protein kinase 2 (Homo sapiens) (UniProt P49137)
[19] = target: Sodium-dependent serotonin transporter (Homo sapiens) (UniProt P31645); details: Compound concentration 10.0 uM
[20] = target: Serine/threonine-protein kinase D1 (Homo sapiens) (UniProt Q15139); assay: PKD1 DUNDEE kinase screen (BI); details: Compound concentration 10.0 uM
[21] = target: Tyrosine-protein kinase Mer (Homo sapiens) (UniProt Q12866); details: Compound concentration 1.0 uM
[22] = target: Serine/threonine-protein kinase N1 (Homo sapiens) (UniProt Q16512); details: Compound concentration 1.0 uM
[23] = target: Proto-oncogene tyrosine-protein kinase Src (Homo sapiens) (UniProt P12931)
[24] = target: Serine/threonine-protein kinase VRK2 (Homo sapiens) (UniProt Q86Y07); details: Compound concentration 1.0 uM
[25] = target: Aurora kinase C (Homo sapiens) (UniProt Q9UQB9); details: Compound concentration 1.0 uM
[26] = target: cAMP-dependent protein kinase catalytic subunit gamma (Homo sapiens) (UniProt P22612); assay: PRKACG (PRKAC GAM Invitrogen Lab (UK) kinase screen (BI); details: Compound concentration 1.0 uM
[27] = target: Serine/threonine-protein kinase PAK 4 (Homo sapiens) (UniProt O96013)
[28] = target: Serine/threonine-protein kinase Nek2 (Homo sapiens) (UniProt P51955); assay: NEK2A DUNDEE kinase screen (BI); details: Compound concentration 10.0 uM
[29] = target: Dual specificity mitogen-activated protein kinase kinase 5 (Homo sapiens) (UniProt Q13163); assay: MAP2K5 Invitrogen Lab (UK) kinase screen (BI); details: Compound concentration 1.0 uM
[30] = target: NT-3 growth factor receptor (Homo sapiens) (UniProt Q16288); assay: NTRK3 Invitrogen Lab (UK) kinase screen (BI); details: Compound concentration 1.0 uM
[31] = target: Casein kinase I isoform delta (Homo sapiens) (UniProt P48730); details: Compound concentration 1.0 uM
[32] = target: Platelet-derived growth factor receptor alpha (Homo sapiens) (UniProt P16234); details: Compound concentration 1.0 uM
[33] = target: Serine/threonine-protein kinase haspin (Homo sapiens) (UniProt Q8TF76); assay: GSG2 Invitrogen Lab (UK) kinase screen (BI); details: Compound concentration 1.0 uM
[34] = target: CDK2/Cyclin O (Homo sapiens) (UniProt P24941+P22674); assay: CDK2/CYCLIN O Invitrogen Lab (UK) kinase screen (BI); format: protein-complex assay; details: Compound concentration 1.0 uM
[35] = target: MAP kinase-interacting serine/threonine-protein kinase 1 (Homo sapiens) (UniProt Q9BUB5); assay: MKNK1 Invitrogen Lab (UK) kinase screen (BI); details: Compound concentration 1.0 uM
[36] = target: CDK9/Cyclin K (Homo sapiens) (UniProt P50750+O75909); assay: CDK9_CYCLINK Invitrogen Lab (UK) kinase screen (BI); format: protein-complex assay; details: Compound concentration 1.0 uM
[37] = target: Activin receptor type-1 (Homo sapiens) (UniProt Q04771); assay: ACVR1 Invitrogen Lab (UK) kinase screen (BI); details: Compound concentration 1.0 uM
[38] = target: Serine/threonine-protein kinase Nek8 (Homo sapiens) (UniProt Q86SG6); details: Compound concentration 1.0 uM
[39] = target: Protein kinase C gamma type (Homo sapiens) (UniProt P05129); assay: PRKCG Invitrogen Lab (UK) kinase screen (BI); details: Compound concentration 1.0 uM
[40] = target: Serine/threonine-protein kinase MRCK beta (Homo sapiens) (UniProt Q9Y5S2); assay: CDC42 BPB Invitrogen Lab (UK) kinase screen (BI); details: Compound concentration 1.0 uM
[41] = target: AMP-activated protein kinase, AMPK (Rattus norvegicus) (UniProt P54645+Q09137+P80386+P80385+Q9QZH4+Q6V7V4+D4A7E4); assay: AMPK DUNDEE kinase screen (BI); format: protein-complex assay; details: Compound concentration 10.0 uM
[42] = target: Muscarinic acetylcholine receptor M4 (Homo sapiens) (UniProt P08173); details: Compound concentration 10.0 uM

Proto-oncogene tyrosine-protein kinase Src (Homo sapiens), sequence (P12931 2-536 limits assumed): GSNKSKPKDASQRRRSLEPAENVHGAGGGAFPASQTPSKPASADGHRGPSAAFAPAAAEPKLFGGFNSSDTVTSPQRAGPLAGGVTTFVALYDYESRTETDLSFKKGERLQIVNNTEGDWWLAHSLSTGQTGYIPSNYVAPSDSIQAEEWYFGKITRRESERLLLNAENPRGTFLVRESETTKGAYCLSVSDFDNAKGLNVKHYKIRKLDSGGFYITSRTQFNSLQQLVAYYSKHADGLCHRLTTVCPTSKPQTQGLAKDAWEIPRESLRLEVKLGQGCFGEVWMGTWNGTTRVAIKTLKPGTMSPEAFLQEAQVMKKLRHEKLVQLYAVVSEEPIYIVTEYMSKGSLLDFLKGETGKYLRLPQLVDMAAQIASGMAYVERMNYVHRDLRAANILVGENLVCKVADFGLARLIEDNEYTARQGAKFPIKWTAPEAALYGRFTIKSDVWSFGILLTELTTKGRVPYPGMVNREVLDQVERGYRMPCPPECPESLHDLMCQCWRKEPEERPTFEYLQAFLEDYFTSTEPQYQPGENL
Tyrosine-protein kinase BTK (Homo sapiens), sequence (Q06187 whole entry): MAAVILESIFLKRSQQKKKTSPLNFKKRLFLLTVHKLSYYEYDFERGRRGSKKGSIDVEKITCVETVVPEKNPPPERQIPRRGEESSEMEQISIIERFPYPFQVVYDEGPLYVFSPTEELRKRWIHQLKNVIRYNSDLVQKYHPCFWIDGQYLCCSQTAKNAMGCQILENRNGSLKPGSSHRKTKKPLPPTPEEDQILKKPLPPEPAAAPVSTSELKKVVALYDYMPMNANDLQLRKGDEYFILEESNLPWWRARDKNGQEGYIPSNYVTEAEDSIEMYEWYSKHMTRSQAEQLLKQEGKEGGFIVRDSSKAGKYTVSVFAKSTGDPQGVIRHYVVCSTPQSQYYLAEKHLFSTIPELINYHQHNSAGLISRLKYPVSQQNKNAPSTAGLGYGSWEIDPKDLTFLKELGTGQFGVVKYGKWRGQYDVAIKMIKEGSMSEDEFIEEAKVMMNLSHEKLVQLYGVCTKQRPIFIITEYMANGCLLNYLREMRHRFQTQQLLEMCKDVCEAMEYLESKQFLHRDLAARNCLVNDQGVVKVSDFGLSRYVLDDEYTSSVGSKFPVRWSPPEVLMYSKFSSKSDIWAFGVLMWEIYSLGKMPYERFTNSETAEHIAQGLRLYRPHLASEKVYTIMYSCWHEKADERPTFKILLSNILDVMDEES
Serine/threonine-protein kinase PAK 4 (Homo sapiens), sequence (O96013 whole entry, looked up): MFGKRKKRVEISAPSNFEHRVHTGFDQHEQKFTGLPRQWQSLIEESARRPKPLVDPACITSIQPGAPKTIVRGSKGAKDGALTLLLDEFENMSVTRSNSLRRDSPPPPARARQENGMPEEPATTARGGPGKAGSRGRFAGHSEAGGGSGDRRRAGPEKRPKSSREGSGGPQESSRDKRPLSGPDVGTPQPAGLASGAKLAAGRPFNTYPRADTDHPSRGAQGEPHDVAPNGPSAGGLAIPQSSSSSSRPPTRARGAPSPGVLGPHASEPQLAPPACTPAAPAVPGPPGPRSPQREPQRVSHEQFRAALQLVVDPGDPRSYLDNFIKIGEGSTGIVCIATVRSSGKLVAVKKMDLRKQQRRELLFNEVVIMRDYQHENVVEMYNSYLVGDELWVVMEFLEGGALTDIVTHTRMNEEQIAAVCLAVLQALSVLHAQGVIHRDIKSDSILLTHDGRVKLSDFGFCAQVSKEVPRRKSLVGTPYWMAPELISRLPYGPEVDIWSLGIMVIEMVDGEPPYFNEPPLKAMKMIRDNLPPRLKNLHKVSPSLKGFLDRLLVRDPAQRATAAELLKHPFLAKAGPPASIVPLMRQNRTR
Ribosomal protein S6 kinase alpha-3 (Homo sapiens), sequence (P51812 whole entry): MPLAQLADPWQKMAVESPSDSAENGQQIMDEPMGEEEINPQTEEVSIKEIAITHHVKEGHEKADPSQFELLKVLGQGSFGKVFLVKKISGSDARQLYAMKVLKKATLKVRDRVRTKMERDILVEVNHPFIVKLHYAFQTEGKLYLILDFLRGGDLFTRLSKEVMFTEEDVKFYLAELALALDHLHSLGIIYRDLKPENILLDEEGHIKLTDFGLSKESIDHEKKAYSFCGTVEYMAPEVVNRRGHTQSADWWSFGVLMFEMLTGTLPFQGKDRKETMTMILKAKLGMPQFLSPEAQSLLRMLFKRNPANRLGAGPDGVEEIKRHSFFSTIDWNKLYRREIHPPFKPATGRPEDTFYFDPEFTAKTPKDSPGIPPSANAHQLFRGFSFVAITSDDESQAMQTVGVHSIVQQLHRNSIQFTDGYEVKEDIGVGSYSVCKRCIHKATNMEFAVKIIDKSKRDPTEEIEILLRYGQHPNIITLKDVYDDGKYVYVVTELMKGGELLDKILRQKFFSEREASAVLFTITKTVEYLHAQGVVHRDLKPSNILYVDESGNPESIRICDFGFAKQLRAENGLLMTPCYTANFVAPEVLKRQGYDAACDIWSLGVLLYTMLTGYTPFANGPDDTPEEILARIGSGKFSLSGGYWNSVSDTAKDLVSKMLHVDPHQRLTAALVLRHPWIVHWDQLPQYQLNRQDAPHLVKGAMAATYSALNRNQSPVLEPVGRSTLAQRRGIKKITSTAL
MAP kinase-activated protein kinase 2 (Homo sapiens), sequence (P49137 whole entry, looked up): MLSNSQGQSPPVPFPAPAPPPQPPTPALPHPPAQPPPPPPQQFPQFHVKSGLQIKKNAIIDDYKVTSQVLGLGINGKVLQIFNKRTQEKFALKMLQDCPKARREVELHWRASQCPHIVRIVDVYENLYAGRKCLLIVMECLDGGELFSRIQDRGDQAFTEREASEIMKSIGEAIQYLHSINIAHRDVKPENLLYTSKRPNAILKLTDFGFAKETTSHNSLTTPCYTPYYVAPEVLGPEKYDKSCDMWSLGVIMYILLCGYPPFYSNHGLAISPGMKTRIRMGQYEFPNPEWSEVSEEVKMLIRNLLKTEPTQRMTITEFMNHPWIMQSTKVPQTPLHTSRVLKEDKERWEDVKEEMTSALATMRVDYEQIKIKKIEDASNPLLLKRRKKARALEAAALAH
Serotonin 2 (5-HT2) receptor (Rattus norvegicus), sequence (P08909 whole entry, looked up): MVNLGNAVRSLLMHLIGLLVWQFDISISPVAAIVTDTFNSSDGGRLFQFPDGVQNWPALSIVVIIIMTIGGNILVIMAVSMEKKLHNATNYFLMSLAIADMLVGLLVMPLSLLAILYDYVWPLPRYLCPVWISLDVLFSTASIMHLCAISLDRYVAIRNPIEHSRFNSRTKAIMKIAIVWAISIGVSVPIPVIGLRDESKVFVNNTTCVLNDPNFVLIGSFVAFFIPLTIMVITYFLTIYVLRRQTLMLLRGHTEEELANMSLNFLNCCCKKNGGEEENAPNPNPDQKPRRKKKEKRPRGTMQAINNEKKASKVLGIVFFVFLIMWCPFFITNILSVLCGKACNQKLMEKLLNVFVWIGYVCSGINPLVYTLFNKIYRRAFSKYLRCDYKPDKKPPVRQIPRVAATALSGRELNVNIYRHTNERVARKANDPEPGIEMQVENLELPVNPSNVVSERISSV
Serotonin 2 (5-HT2) receptor (Rattus norvegicus), sequence (P14842 whole entry, looked up): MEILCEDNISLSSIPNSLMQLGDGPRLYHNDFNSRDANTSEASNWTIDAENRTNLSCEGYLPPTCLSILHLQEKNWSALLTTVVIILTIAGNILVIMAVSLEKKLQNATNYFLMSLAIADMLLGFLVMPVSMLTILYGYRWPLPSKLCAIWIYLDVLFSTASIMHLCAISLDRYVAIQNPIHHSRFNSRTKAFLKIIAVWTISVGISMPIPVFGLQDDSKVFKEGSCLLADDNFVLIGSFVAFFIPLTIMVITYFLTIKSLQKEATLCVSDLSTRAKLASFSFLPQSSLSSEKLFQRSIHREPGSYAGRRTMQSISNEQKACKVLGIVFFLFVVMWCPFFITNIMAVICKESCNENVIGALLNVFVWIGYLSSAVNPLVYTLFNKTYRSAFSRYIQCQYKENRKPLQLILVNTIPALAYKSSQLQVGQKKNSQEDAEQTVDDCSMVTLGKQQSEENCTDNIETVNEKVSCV
Serotonin 2 (5-HT2) receptor (Rattus norvegicus), sequence (P30994 whole entry, looked up): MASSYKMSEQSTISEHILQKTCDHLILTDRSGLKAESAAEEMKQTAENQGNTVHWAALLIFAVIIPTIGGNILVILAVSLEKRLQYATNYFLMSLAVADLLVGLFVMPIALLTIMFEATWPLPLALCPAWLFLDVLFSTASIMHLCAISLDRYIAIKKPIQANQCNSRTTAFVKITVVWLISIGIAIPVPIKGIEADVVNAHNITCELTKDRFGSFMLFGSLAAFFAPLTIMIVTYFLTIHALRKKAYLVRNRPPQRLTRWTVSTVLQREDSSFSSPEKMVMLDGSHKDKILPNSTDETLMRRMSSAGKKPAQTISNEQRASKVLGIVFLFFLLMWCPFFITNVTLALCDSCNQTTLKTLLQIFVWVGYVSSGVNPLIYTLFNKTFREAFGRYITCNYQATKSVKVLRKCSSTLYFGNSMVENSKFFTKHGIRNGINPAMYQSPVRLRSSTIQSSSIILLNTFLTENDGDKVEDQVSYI
Casein kinase I isoform gamma-2 (Homo sapiens), sequence (P78368 whole entry, looked up, canonical isoform): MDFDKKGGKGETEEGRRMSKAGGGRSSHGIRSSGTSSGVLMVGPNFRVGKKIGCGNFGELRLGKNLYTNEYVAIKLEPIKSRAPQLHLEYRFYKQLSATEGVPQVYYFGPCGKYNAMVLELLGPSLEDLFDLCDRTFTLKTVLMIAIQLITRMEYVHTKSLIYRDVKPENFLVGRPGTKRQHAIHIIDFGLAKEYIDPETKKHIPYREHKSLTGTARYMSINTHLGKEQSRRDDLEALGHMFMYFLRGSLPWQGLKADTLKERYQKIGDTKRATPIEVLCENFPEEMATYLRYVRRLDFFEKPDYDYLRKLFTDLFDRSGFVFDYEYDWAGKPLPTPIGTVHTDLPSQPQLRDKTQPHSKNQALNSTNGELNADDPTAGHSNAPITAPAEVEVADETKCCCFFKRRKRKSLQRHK
Natriuretic peptides A (Cavia porcellus), sequence (P27596 whole entry): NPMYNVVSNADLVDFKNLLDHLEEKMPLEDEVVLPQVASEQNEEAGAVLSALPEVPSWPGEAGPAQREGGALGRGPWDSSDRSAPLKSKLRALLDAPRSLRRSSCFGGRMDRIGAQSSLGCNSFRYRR

CCC(F)(F)c1cc(N2CCC(S(C)(=O)=O)CC2)nc2sc(C(N)=O)c(N)c12 [BI-605906]
inactive: residual activity [1] 77% | residual activity ([2]; Compound concentration 10.0 uM) 97% | residual activity ([2]; Compound concentration 100.0 uM) 95% | residual activity ([3]; Compound concentration 1.0 uM) 85% | residual activity ([3]; Compound concentration 10.0 uM) 96% | residual activity [4] 100% | residual activity [5] 96% | residual activity [6] 95% | residual activity [7] 87% | residual activity [8] 98% | residual activity [9] 100% | residual activity [10] 79% | residual activity [11] 82% | residual activity [12] 125% | residual activity [13] 93% | residual activity ([14]; Compound concentration 1.0 uM) 96% | residual activity ([14]; Compound concentration 10.0 uM) 94% | residual activity [15] 95% | residual activity ([16]; Compound concentration 1.0 uM) 94% | residual activity ([16]; Compound concentration 10.0 uM) 95% | residual activity [17] 69% | residual activity ([18]; Compound concentration 1.0 uM) 93% | residual activity ([18]; Compound concentration 10.0 uM) 87% | residual activity [19] 108% | residual activity [20] 93.5% | residual activity [21] 93% | residual activity [22] 87% | residual activity ([23]; Compound concentration 1.0 uM) 79% | residual activity ([23]; Compound concentration 10.0 uM) 92% | residual activity [24] 82% | residual activity [25] 95% | residual activity [26] 103% | residual activity ([27]; Compound concentration 1.0 uM) 95% | residual activity ([27]; Compound concentration 10.0 uM) 80% | residual activity [28] 74.8% | residual activity [29] 107% | residual activity [30] 84% | residual activity [31] 100% | residual activity [32] 93% | residual activity [33] 70% | residual activity [34] 81% | residual activity [35] 107% | residual activity [36] 88% | residual activity [37] 79% | residual activity [38] 95% | residual activity [39] 102% | residual activity [40] 103% | residual activity [41] 79.2% | inhibition [42] 13.3%
